The results in this text go back to patent publication US7122526B2, “Indolocarbazole anticancer agents and methods of using same” (Nanosphere, Inc., priority 2000, dated 2006).

The test system of one test is HT-29 Colon. Nature of the test: In vitro cytotoxicity assay (MTS), HT-29. The class given is cell-based. As to conditions: HT-29 human colon tumor cell line, MTS assay 3–5 days; read-out: Growth-Inhibitory Activity IC50 HT-29 Colon. The method, then:
(§1) b.) In vitro Cytotoxicity Assay. 96-Well tissue culture cluster plates were seeded with 100 μL of cell suspension (5×10^3 cells/mL), and incubated overnight for cell anchorage and acclimation. Cells were propagated under sterile conditions in RPMI 1640 or DMEM with 10% fetal bovine serum, 2 mM L-glutamine, and sodium bicarbonate (complete medium), and incubated at 37° C. The test compounds were prepared in DMSO and then diluted in complete media. A range of eight concentrations was used for each test drug to establish cytotoxicity, with eight replicates for each concentration. All dosing was conducted using a Biomek 2000 robotic liquid handler. The plates were incubated at 37° C. with 5% CO2 and 95% relative humidity. The data were analyzed for cytotoxicity using the MTS assay 3–5 days (depending upon the growth rate of the cell lines) after commencement of treatment.
(§2) c.) MTS Assay. A solution of 40 μL of MTS/PES solution (purchased from Promega Corporation) was added to each well, and incubated for one to four hours. The absorbance of formazan in each monolayer was measured at 490 nm on a Coulter microplate reader. The data were processed in a spreadsheet program to provide a dose-response curve, allowing determination of the IC50.
(Formazan colour is commonly taken as a measure of viable cells.)

For a further test, the system named is OVCAR-3 Ovarian. The experiment in a line: In vitro cytotoxicity assay (MTS), OVCAR-3. The class given is cell-based. To be noted: OVCAR-3 human ovarian tumor cell line, MTS assay 3–5 days; read-out: Growth-Inhibitory Activity IC50 OVCAR-3 Ovarian. The method, then:
as §1, §2

A further test deals with DU-145 Prostate. The experiment in a line: In vitro cytotoxicity assay (MTS), DU-145. The class given is cell-based. As to conditions: DU-145 human prostate tumor cell line, MTS assay 3–5 days; read-out: Growth-Inhibitory Activity IC50 DU-145 Prostate. As for the experimental part:
as §1, §2

The next test deals with T1, Human Topoisomerase I (Homo sapiens, UniProt P11387).
T1 sequence (P11387 1-765): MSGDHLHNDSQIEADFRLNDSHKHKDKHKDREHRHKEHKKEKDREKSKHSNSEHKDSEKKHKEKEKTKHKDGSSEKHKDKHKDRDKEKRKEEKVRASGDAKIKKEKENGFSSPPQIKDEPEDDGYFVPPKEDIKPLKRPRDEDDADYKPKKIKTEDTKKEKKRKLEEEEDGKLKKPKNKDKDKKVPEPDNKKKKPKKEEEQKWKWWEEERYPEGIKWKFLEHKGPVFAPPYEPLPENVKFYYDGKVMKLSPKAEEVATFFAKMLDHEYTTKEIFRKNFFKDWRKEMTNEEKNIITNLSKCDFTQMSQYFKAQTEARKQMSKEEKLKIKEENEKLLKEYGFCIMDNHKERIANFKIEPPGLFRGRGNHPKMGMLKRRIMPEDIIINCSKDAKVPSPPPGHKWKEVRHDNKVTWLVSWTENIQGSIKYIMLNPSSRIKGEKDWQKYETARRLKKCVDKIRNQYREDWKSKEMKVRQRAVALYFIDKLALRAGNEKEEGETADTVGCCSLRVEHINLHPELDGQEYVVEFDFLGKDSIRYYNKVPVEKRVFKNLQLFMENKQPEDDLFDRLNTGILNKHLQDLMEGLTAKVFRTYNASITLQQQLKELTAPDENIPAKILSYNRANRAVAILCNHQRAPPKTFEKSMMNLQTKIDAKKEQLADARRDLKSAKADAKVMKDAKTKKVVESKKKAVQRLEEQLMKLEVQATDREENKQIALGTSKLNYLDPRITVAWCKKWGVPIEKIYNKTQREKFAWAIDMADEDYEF
Nature of the test: Topoisomerase I assay (pHOT1 supercoiled DNA, agarose gel). As to conditions: supercoiled DNA band density, 37° C., 30 minutes; read-out: Poisoning of Human Topoisomerase I IC50. The class given is biochemical. The method, then:
a.) Topoisomerase I assay. Reaction buffer (10.3 μL H2O, 2.0 μL 10×buffer, 1.5 μL […] MgCl2, and 3.2 μL 500 mM KCl) was prepared and kept on ice. 10×Buffer was prepared by mixing 2 mL 2M Tris pH 7.5, 15.3 μL 10% DTT, 100 μL 0.5 M EDTA, 75 μL 20 mg/mL BSA, and […]. Test poisons were prepared in DMSO at such concentrations that the final incubation mixture was 5% DMSO. DNA mix was prepared by dissolving […] of pHOT1 DNA solution (0.25 μg/μL) with 715 μL reaction buffer. Topo I mix was prepared by mixing 14 μL of Topo I solution (2 units/μL) with 266 μL of reaction buffer. Proteinase K solution was prepared fresh as 10 mg/mL in 1% SDS. Gel loading buffer was prepared by dissolving 1 mg bromophenol blue in 100 μL H2O, then adding 900 μL 50% glycerol.
The assay was conducted as follows. DNA mix (14 μL) was added to sample tubes containing 1 μL of test poison solution and stored on ice. Next, 5 μL of Topo I mix was added, the solution was mixed with the pipettor, then incubated with gentle rocking in a 37° C. water bath for 30 minutes. The reactions were stopped via addition of 2 μL of proteinase K solution, and incubation was continued for another 30 minutes, then placed on ice. 2.2 μL of 5 M NaCl and 75 μL of EtOH were added to the tubes, the tubes were vortexed briefly, then placed on dry ice for 1 hour. The DNA was pelleted by centrifugation at 16,000×g for 10 minutes at 4° C. EtOH was removed from each tube using a gel loading pipette tip, and the DNA pellet was resuspended in 18 μL of reaction buffer and 2 μL of gel loading buffer. The samples were vortexed briefly, then spun for 15 seconds in a micro-centrifuge to force all the liquid to the bottom of the tubes. The samples were loaded onto a 1% agarose gel made with 1×TBE containing 2 μg/mL chloroquine. The gels were run at 35 V for 15 hours in 1×TBE. Gels were stained with 0.5 μg/mL ethidium bromide in 1×TBE for 1 hour, then destained for 30 minutes in H2O. Gels were photographed with a digital camera, and the digitized images analyzed using NIH software. IC50 values were determined by comparing supercoiled DNA band density (negative controls containing 5 μL reaction buffer in place of Topo I mix) with the supercoiled DNA bands remaining in the test samples.

What is called IC50 is the concentration that inhibits the measured activity by half.

In the case of `O=C1c2c(c3c4cc(O)ccc4n(C4OC(CO)C(O)C(O)C4O)c3c3[nH]c4cc5c(cc4c23)OCCO5)C(=O)N1CO` [compound 9, 2,3-ethylenedioxy-6-hydroxymethyl-9-hydroxy-12-(β-D-glucopyranosyl)-6,7,12,13-tetrahydroindolo[2,3-a]pyrrolo[3,4c]carbazole-5,7-dione], the IC50 is greater than 10000 nM in the test with HT-29 Colon, less than 10 nM with OVCAR-3 Ovarian, 718 nM in the test with DU-145 Prostate and 3900 nM on Human Topoisomerase I.

`O=C1NC(=O)c2c1c1c3cc(O)ccc3[nH]c1c1c2c2cc3c(cc2n1[C@@H]1O[C@H](CO)[C@@H](O)[C@H](O)[C@H]1O)OCO3` [IIb, 2,3-methylenedioxy-9-hydroxy-13-(β-D-glucopyranosyl)-6,7,12,13-tetrahydroindolo[2,3-a]pyrrolo[3,4-c]carbazole-5,7-dione]: the half-inhibitory concentration (IC50) on Human Topoisomerase I is greater than 400000 nM.

Regarding `CC[C@@]1(O)C(=O)OCc2c1cc1n(c2=O)Cc2cc3c(CN(C)C)c(O)ccc3nc2-1` [Topotecan, reference compound], the IC50 is 533 nM in the test on HT-29 Colon, less than 3 nM in the test with OVCAR-3 Ovarian and 30 nM in the test with DU-145 Prostate.

Take `O=C1NC(=O)c2c1c1c3cc(O)ccc3[nH]c1c1c2c2cc3c(cc2n1[C@@H]1O[C@H](CO)[C@@H](O)[C@H](O)[C@H]1O)OCCO3` [IIa, 2,3-ethylenedioxy-9-hydroxy-13-(β-D-glucopyranosyl)-6,7,12,13-tetrahydroindolo[2,3-a]pyrrolo[3,4-c]carbazole-5,7-dione]: the IC50 on Human Topoisomerase I was greater than 400000 nM.

For `O=C1NC(=O)c2c1c1c3cc4c(cc3[nH]c1c1c2c2cc(O)ccc2n1[C@@H]1O[C@H](CO)[C@@H](O)[C@H](O)[C@H]1O)OCO4` [Ib, 2,3-methylenedioxy-9-hydroxy-12-(β-D-glucopyranosyl)-6,7,12,13-tetrahydroindolo[2,3-a]pyrrolo[3,4-c]carbazole-5,7-dione], the IC50 was greater than 10000 nM with HT-29 Colon, less than 10 nM with OVCAR-3 Ovarian, 460 nM in the test with DU-145 Prostate and 3600 nM at Human Topoisomerase I.

`CC1(C)Oc2cc3[nH]c4c(c5c(c6c7cc(O)ccc7n(C7OC(CO)C(O)C(O)C7O)c46)C(=O)N(CO)C5=O)c3cc2O1` [compound 23, 2,3-isopropylenedioxy-6-hydroxymethyl-9-hydroxy-12-(β-D-glucopyranosyl)-6,7,12,13-tetrahydroindolo[2,3-a]pyrrolo[3,4-c]carbazole-5,7-dione]: the IC50 with HT-29 Colon is greater than 10000 nM; in the test with OVCAR-3 Ovarian, 43 nM; in the test with DU-145 Prostate, 3520 nM; on Human Topoisomerase I it was 130000 nM.

In the case of `O=C1c2c(c3c4cc(O)ccc4n([C@@H]4O[C@H](CO)[C@@H](O)[C@H](O)[C@H]4O)c3c3[nH]c4cc5c(cc4c23)OCO5)C(=O)N1CO` [compound 16, 2,3-methylenedioxy-6-hydroxymethyl-9-hydroxy-12-(β-D-glucopyranosyl)-6,7,12,13-tetrahydroindolo[2,3-a]pyrrolo[3,4-c]carbazole-5,7-dione], the half-maximal inhibitory concentration (IC50) in the test on HT-29 Colon is greater than 10000 nM; in the test on OVCAR-3 Ovarian it was less than 10 nM; in the test with DU-145 Prostate it was 549 nM; on Human Topoisomerase I, 3600 nM.

On to `O=C1NC(=O)c2c1c1c3cc(O)ccc3[nH]c1c1c2c2cc(O)ccc2n1[C@@H]1O[C@H](CO)[C@@H](O)[C@H](O)[C@H]1O` [ALS-007, 3,9-dihydroxy-12-(β-D-glucopyranosyl)-6,7,12,13-tetrahydroindolo[2,3-a]pyrrolo[3,4-c]carbazole-5,7-dione, reference compound], for which the IC50 was 9960 nM in the test with HT-29 Colon, less than 10 nM with OVCAR-3 Ovarian, 338 nM in the test with DU-145 Prostate and 20900 nM at Human Topoisomerase I.

`CC1(C)Oc2cc3[nH]c4c(c5c(c6c7cc(O)ccc7n(C7OC(CO)C(O)C(O)C7O)c46)C(=O)NC5=O)c3cc2O1` [Ic, 2,3-isopropylenedioxy-9-hydroxy-12-(β-D-glucopyranosyl)-6,7,12,13-tetrahydroindolo[2,3-a]pyrrolo[3,4-c]carbazole-5,7-dione]: the IC50 is greater than 10000 nM with HT-29 Colon, 36 nM in the test with OVCAR-3 Ovarian, 2360 nM in the test on DU-145 Prostate and 8100 nM on Human Topoisomerase I.

In the case of `O=C1NC(=O)c2c1c1c3cc4c(cc3[nH]c1c1c2c2cc(O)ccc2n1[C@@H]1O[C@H](CO)[C@@H](O)[C@H](O)[C@H]1O)OCCO4` [Ia, 2,3-ethylenedioxy-9-hydroxy-12-(β-D-glucopyranosyl)-6,7,12,13-tetrahydroindolo[2,3-a]pyrrolo[3,4-c]carbazole-5,7-dione], the IC50 is greater than 10000 nM in the test on HT-29 Colon, less than 10 nM with OVCAR-3 Ovarian, 845 nM in the test with DU-145 Prostate and 5400 nM on Human Topoisomerase I.
